Experimental findings from US12448388B2, “PRMT5 inhibitors and uses thereof” (Gilead Sciences, Inc., priority 2023, dated 2025) are described below.

Data set [1] concerns HCT116 MTAP-deleted cell lines. Briefly: Cell viability assay (CellTiter-Glo, 7 days), HCT116 MTAP-deleted. The class given is cell-based. The settings on record: for Selectivity: HCT116 WT CC50 versus HCT116 MTAP^del CC50; for CC50: Homo sapiens, HCT116 MTAP-deleted; for plasma-adjusted CC50 (paCC50): paCC50 = CC50-HCT116-MTAP^del * (% free CCM/% free human plasma). An outline of the steps:
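HCT116 MTAP-deleted and wild-type cells exposed to serially diluted compound for 7 days at 37 °C, 5% CO2. Viability read by CellTiter-Glo luminescence; CC50 derived per line, with selectivity comparing WT to MTAP-deleted, limited solubility can inflate values marked *.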

A short description of data set [2]: Cell viability assay (CellTiter-Glo, 7 days), HCT116 WT. The class given is cell-based. The settings on record: human, HCT116 WT cells, 7 days of treatment, CTG. As for the experimental part:
Control compounds were analyzed in parallel each time for quality control. In Brief, on Day -1, a serial dilution of stock compounds in DMSO was performed using BioMek liquid handlers and dispensed using Echo acoustic dispenser into 384 well plates. Both tool compounds and sample compounds were spotted in the same plate for a dose response of PRMT5 inhibitors. Compound plates were stored as frozen until the cells were ready for seeding. […] After equilibrating the plate in room temperature, the cells were incubated for 7 days inside the sealed incubator set at 37° C. with 90% humidity and 5% CO2. On Day 7, the viability of cells was measured using a CTG assay kit (CellTitre-Glo;Promega cat no. G7573). Shortly, 40 μl per well of luminescent cell viability assay reagent were dispensed using EL460 liquid dispenser 5 μl cassette. CTG luminescence signal was measured using an EnVision plate reader (PerkinElmer) in accordance with manufacturer's instruction. […] Selectivity with * is artificially high due to limited solubility of the compound hampering accurate measurement of WT CC50.

The nature of data set [3]: MDR1/BCRP assay: permeability in cPgp-KO-MDCK-WT cells. In kind it is in vitro ADME. The settings on record: dog, pH 7.4. Here is the method: The cells were maintained in an incubator at 37° C., 90% humidity, and 5% CO2 until reaching confluence over 5 days in 96-well transwell plates. Experiments were conducted using an HBSS donor buffer (Invitrogen) containing 10 mM HEPES and 15 mM glucose, adjusted to pH 7.4. The receiver well contained HBSS buffer supplemented with 1% BSA, 10 mM HEPES, and 15 mM glucose, and the pH was adjusted to 7.4. TEER values were measured to assess membrane integrity after an initial equilibration with BSA-free transport buffer for 15 minutes. The experiment was started by adding dosing solutions containing test compounds at 1 μM. Cells were dosed on the apical (A) side or basolateral (B) side at 100 μl and 200 μl, respectively, to determine forward (A to B) and reverse (B to A) permeability. At the 2-hour time point, 50 μl samples were collected from the receiver compartment. Each compound was tested in 2 separate replicate wells for each condition. All samples were immediately collected into plates, and 50 μL of acetonitrile was added. Subsequently, 350 μl of 30:70 methanol: acetonitrile containing internal standard was added to precipitate proteins and stabilize the test compounds. To test for non-specific binding and compound instability, the total amount of the drug was quantified at the end of the experiment and compared to the material present in the original dosing solution as a percentage of the recovery. All samples were analyzed by LC-MS/MS using electrospray ionization.
The apparent permeability, Papp, and % recovery were calculated as follows: […]

Data set [4] is described as follows: PBS solubility (kinetic solubility from DMSO stocks). In kind it is physicochemical. The settings on record: 22 °C, aqueous buffer, kinetic from dmso stock; 1x PBS pH 7.4, 1.0% DMSO, 24-hour incubation at ambient temperature. As for the experimental part: Buffer Preparation: 1×PBS, 7.4: Phosphate Buffered Saline solution 10×, PBS (Fisher Bioreagent, part number BP399-500) 50 mL was added to approximately 450 mL HPLC grade H2O. The volume of the solution was then adjusted to 500 mL for a total dilution factor of 1:10 and a final PBS concentration of 1×. The pH of the final solution was measured and found to be 7.4.
The final DMSO Concentration is 1.0% and maximum theoretical compound concentration is 100 μM (assuming stock concentration of 10 mM). The filter plate was sealed. Following 24-hour incubation at ambient temperature (20.8-24.0° C.), the samples were vacuum filtered, and the filtrates were collected in a 96 well polypropylene plate for analysis. The collection plate was sealed for analysis. Filtrates were injected into the nitrogen detector for quantification on Analiza's Automated Discovery Workstation. The results are reported here in both μM and μg/mL.
Calculation of Results: The equimolar nitrogen response of the detector is calibrated using standards which span the dynamic range of the instrument from 0.08 to 4500 μg/ml nitrogen. The filtrates were quantified with respect to this calibration curve. The calculated solubility values are corrected for background nitrogen present in the DMSO, and the media used to prepare the samples. All reported values for compounds containing adjacent nitrogen atoms in a ring structure should be increased by ˜25%. […] The solubility results presented assume that the samples were free of nitrogen containing impurities and are stable under the assay conditions.

Data set [5] concerns Symmetric Di-methyl Arginine (SDMA) signal (PRMT5 inhibition) in HCT116 MTAP-deleted cells. Briefly: Symmetric di-methyl arginine image-based high content screen assay (SDMA assay), HCT116 MTAP-deleted. The class given is cell-based. The settings on record: for EC50 selectivity: HCT116 WT vs HCT116 MTAP-deleted; for EC50: Homo sapiens, HCT-116, HCT116 MTAP-deleted, class symbols. In a few lines: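 HCT116 WT and MTAP-deleted cells (800/well, RPMI 1640 + 10% FBS) treated with compound 3 days at 37 °C; formalin-fixed, stained with anti-SDMA antibody/Alexa 488 plus DAPI. Mean SDMA intensity per DAPI-defined cell imaged; EC50 from 4-parameter logistic fit.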

Where [6] appears, read: HCT-116, 168 h, 7 days of treatment, CTG, read-out: CC50-HCT116-MTAP^del.
The mark [7] stands for this setting: HCT-116, cell viability, class symbols, read-out: CC50.
The mark [8] stands for this setting: HCT-116, cell viability assay, class symbols, read-out: CC50.

Converted amounts (≈) assume the structure as drawn. Like-named read-outs stand apart in the source and are kept apart here.

In data set [1], `Nc1nc2cnc(C(=O)N3C[C@H](F)CC4Oc5cc(C(F)(F)F)ccc5[C@@H]43)cc2n2cncc12` (mixture of isomers) [Ff-113, Rac-(4-aminoimidazo[1,5-a]pyrido[3,4-e]pyrazin-8-yl)((3R,4aS,9bS)-3-fluoro-7-(trifluoromethyl)-3,4,4a,9b-tetrahydrobenzofuro[3,2-b]pyridin-1(2H)-yl)methanone] had a Selectivity of 86. The values for the CC50 in data set [1] (setting [6]) and in data set [1] (setting [7]) were 30 nM and below 100 nM, respectively. The compound further showed a CC50 at 7 days in data set [2] of 2570 nM. In data set [3], this compound displayed an apparent permeability from apical to basolateral (Papp A→B) at 2 h, 1 µM of 12.3 ×10⁻⁶ cm/s. For the same compound, the concentration in solution in data set [4] (solubility at 24 h) came to 1.1 µM (≈ 0.52 µg/mL).

Compound `Nc1nc2cnc(C(=O)N3CC[C@H]4C[C@@H]3c3c(F)cc(OC(F)(F)F)cc3O4)cc2n2cncc12` (single isomer, unassigned) [Ff-692] registered a Selectivity in data set [1] of 69. The compound further displayed a plasma-adjusted CC50 (paCC50) in data set [1] (HCT-116) of 139 nM. For the same compound, the CC50 in data set [1] (setting [6]) came out at 14 nM. In data set [2], this compound came in with a CC50 at 7 days of 969 nM. In addition, the concentration in solution in data set [4] (solubility at 24 h) was 18.6 µM (≈ 9.08 µg/mL).

In turn, `Nc1nc2cnc(C(=O)N3CCC[C@@H]4Oc5cc(C(F)(F)F)c(F)cc5[C@@H]43)cc2n2cncc12` [Ff-115, (4-aminoimidazo[1,5-a]pyrido[3,4-e]pyrazin-8-yl)((4aS,9bS)-8-fluoro-7-(trifluoromethyl)-3,4,4a,9b-tetrahydrobenzofuro[3,2-b]pyridin-1(2H)-yl)methanone] yielded a Selectivity in data set [1] of 48. Besides, the plasma-adjusted CC50 (paCC50) in data set [1] (HCT-116) is 202 nM. For the same compound, the figures for the CC50 in data set [1] (setting [6]) and in data set [1] (setting [7]) were 10 nM and below 100 nM, respectively. This compound also registered a 50% cytotoxic concentration (CC50) at 7 days in data set [2] of 478 nM. The same compound had a Papp A→B at 2 h, 1 µM in data set [3] of 7.6 ×10⁻⁶ cm/s. The solubility at 24 h in data set [4] was below 1 µM.

For `Nc1nc2cc(F)c(C(=O)N3CCO[C@@H]4Cc5cc(OC(F)F)c(F)cc5[C@@H]43)cc2n2cncc12` [Ff-174, (4-amino-7-fluoroimidazo[1,5-a]quinoxalin-8-yl)((4aS,9aR)-7-(difluoromethoxy)-6-fluoro-2,3,9,9a-tetrahydroindeno[2,1-b][1,4]oxazin-4(4aH)-yl)methanone], the Selectivity in data set [1] stood at 63. In addition, the values for the CC50 in data set [1] (setting [6]) and in data set [1] (setting [7]) were 36 nM and below 100 nM, respectively. Also, the CC50 at 7 days in data set [2] worked out at 2280 nM. Further, the Papp A→B at 2 h, 1 µM in data set [3] worked out at 17.8 ×10⁻⁶ cm/s. Further, the solubility at 24 h in data set [4] is below 1 µM.

Turning to `Cc1cc2nc(N)c3cncn3c2cc1C(=O)N1CCC[C@@H]2Oc3cc(C(F)(F)F)ccc3[C@@H]21` [Ff-368, (4-amino-7-methylimidazo[1,5-a]quinoxalin-8-yl)((4aS,9bS)-7-(trifluoromethyl)-3,4,4a,9b-tetrahydrobenzofuro[3,2-b]pyridin-1(2H)-yl)methanone], the Selectivity in data set [1] stood at 59. In data set [1] (setting [6]), the 50% cytotoxic concentration (CC50) was 3 nM. Further, the CC50 in data set [1] (setting [8]) was below 100 nM. The CC50 at 7 days in data set [2] was 178 nM. For the same compound, in data set [5], the EC50 selectivity worked out at 47 and the 50% effective concentration (EC50) was at most 1 nM.

In data set [1], `Cc1ncn2c1c(N)nc1cc(F)c(C(=O)N3CCCC[C@@H]3c3ccc(S(F)(F)(F)(F)F)cc3)cc12` [Ff-402, (R)-(4-amino-7-fluoro-3-methylimidazo[1,5-a]quinoxalin-8-yl)(2-(4-(pentafluoro-16-sulfaneyl)phenyl)piperidin-1-yl)methanone] displayed a Selectivity of 84. The compound also returned a plasma-adjusted CC50 (paCC50) in data set [1] (HCT-116) of 40 nM. For the same compound, the CC50 in data set [1] (setting [6]) was 30 nM; in data set [1] (setting [8]) it was below 100 nM. Besides, the CC50 at 7 days in data set [2] amounted to 2520 nM. Moreover, the solubility at 24 h in data set [4] is 18.3 µM (≈ 9.69 µg/mL).

`Nc1nc2cc(F)c(C(=O)N3CCC[C@@H]4Oc5ccc(C(F)(F)F)cc5[C@@H]43)cc2n2cncc12` [Ff-620, (4-amino-7-fluoroimidazo[1,5-a]quinoxalin-8-yl)((4aS,9bS)-8-(trifluoromethyl)-3,4,4a,9b-tetrahydrobenzofuro[3,2-b]pyridin-1(2H)-yl)methanone]: the Selectivity in data set [1] was found to be 50. Also, the CC50 in data set [1] (setting [6]) is 31 nM; in data set [1] (setting [8]), below 100 nM. The same compound returned a CC50 at 7 days in data set [2] of 1550 nM. Also, in data set [4], the concentration in solution (solubility at 24 h) was 1.2 µM (≈ 0.566 µg/mL).

In data set [1], `Cc1ncn2c1c(N)nc1cnc(C(=O)N3CC[C@H]4C[C@@H]3c3ccc(OC(F)(F)F)cc3O4)cc12` [Ff-632, (4-amino-3-methylimidazo[1,5-a]pyrido[3,4-e]pyrazin-8-yl)((2S,6R)-9-(trifluoromethoxy)-3,4-dihydro-2H-2,6-methanobenzo[b][1,5]oxazocin-5(6H)-yl)methanone] displayed a Selectivity of 93. The plasma-adjusted CC50 (paCC50) in data set [1] (HCT-116) was found to be 270 nM. In addition, the CC50 is 18 nM in data set [1] (setting [6]) and below 100 nM in data set [1] (setting [8]). Further, it took 1680 nM to reach half-maximal cytotoxicity in data set [2] (CC50 at 7 days).

Turning to `Cc1ncn2c1c(N)nc1cnc(C(=O)N3CC[C@H]4C[C@@H]3c3ccc(C(F)(F)F)c(F)c3O4)cc12` [Ff-633, (4-amino-3-methylimidazo[1,5-a]pyrido[3,4-e]pyrazin-8-yl)((2S,6R)-10-fluoro-9-(trifluoromethyl)-3,4-dihydro-2H-2,6-methanobenzo[b][1,5]oxazocin-5(6H)-yl)methanone], the Selectivity in data set [1] is listed as 104. The CC50 in data set [1] (setting [6]) was found to be 20 nM. The half-maximal cytotoxic concentration (CC50) in data set [1] (setting [8]) was below 100 nM. The compound also showed a CC50 at 7 days in data set [2] of 2080 nM. In data set [5], this compound displayed an EC50 selectivity of 82 and an EC50 of 1 to 5 nM.

On to `[2H]C1([2H])CC[C@@H]2Oc3cc(OC(F)(F)F)ccc3[C@@H]2N1C(=O)c1cc2c(cn1)nc(N)c1cncn12` [Fg-59, (4-aminoimidazo[1,5-a]pyrido[3,4-e]pyrazin-8-yl)((4aS,9bS)-7-(trifluoromethoxy)-3,4,4a,9b-tetrahydrobenzofuro[3,2-b]pyridin-1(2H)-yl-2,2-d2)methanone], for which the CC50 in data set [1] (setting [8]) was below 100 nM. In data set [5], the EC50 selectivity came to 208 and the EC50 is at most 1 nM.

In turn, `Nc1nc2cc(F)c(C(=O)N3CCC[C@@H]4Oc5cc(OC(F)(F)F)cc(F)c5[C@@H]43)cc2n2cncc12` [Fg-68, (4-amino-7-fluoroimidazo[1,5-a]quinoxalin-8-yl)((4aS,9bS)-9-fluoro-7-(trifluoromethoxy)-3,4,4a,9b-tetrahydrobenzofuro[3,2-b]pyridin-1(2H)-yl)methanone] registered a Selectivity in data set [1] of 89. Also, in data set [1] (HCT-116), the plasma-adjusted CC50 (paCC50) turned out to be 130 nM. Moreover, in data set [1] (setting [6]), the CC50 was found to be 8 nM. For the same compound, it took 708 nM to reach half-maximal cytotoxicity in data set [2] (CC50 at 7 days). For the same compound, the solubility at 24 h in data set [4] was below 1 µM.
